Data as given in patent publication US20120004228A1, “Bis Aromatic Compounds for Use as LTC4 Synthase Inhibitors” (BIOLIPOX AB, priority 2009, published 2012).

Legend:
[1] = target: T1, Recombinant human LTC4 synthase (Homo sapiens, UniProt Q16873); experiment: In vitro LTC4 synthase assay (LTA4 to LTC4, HTRF detection); format: biochemical; conditions: for inhibition at 10 µM: 5 min, total concentration of title compound in the assay 10 μM
T1 construct: made in house; host or cells: Pichia pastoris ('Piccia pastoralis' [sic])
T1 sequence (Q16873 1-150): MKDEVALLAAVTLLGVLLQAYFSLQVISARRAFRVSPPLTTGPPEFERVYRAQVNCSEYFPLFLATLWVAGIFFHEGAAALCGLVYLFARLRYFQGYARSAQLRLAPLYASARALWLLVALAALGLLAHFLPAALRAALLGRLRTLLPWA

[2] = target: T1, Recombinant human LTC4 synthase; experiment: as above; format: biochemical

Row | Compound | IC50 [1] | inhibition at 1 µM [2] | inhibition at 10 µM [1]
1 | CN(c1ccc(Cl)cc1)c1ccc(C(=O)c2cc(NC(=O)c3ccc(Cl)cc3Cl)cc(C(=O)O)c2)cc1 [Example 1:1, 3-{4-[(4-Chlorophenyl)(methyl)amino]benzoyl}-5-(2,4-dichlorobenzamido)benzoic acid] | 166 nM | 95% | –
2 | CN(c1ccc(Cl)cc1)c1ccc(C(=O)c2cc(C(=O)O)cc(N(C)c3ccccc3F)c2)cc1 [10:24, 3-{4-[(4-Chlorophenyl)(methyl)amino]benzoyl}-5-[(2-fluorophenyl)(methyl)-amino]benzoic acid] | 40 nM | – | –
3 | CN(c1ccc(Cl)cc1)c1ccc(C(=O)c2cc(C(=O)O)cc(C(=O)Nc3ccc(Cl)cc3)c2)nc1 [2:3, 3-{5-[(4-Chlorophenyl)(methyl)amino]picolinoyl}-5-(4-chlorophenyl-carbamoyl)-benzoic acid] | 343 nM | – | –
4 | CN(c1ccc(Cl)cc1)c1ccc(C(=O)c2cc(Oc3ccc(C#N)cc3)cc(C(=O)O)c2)nc1 [8:7, 3-{5-[(4-Chlorophenyl)(methyl)amino]picolinoyl}-5-(4-cyanophenoxy)benzoic acid] | 274 nM | – | –
5 | CCCCCCC(=O)Nc1ccc(C(=O)c2ccc(Nc3ccc(Cl)cc3)cc2C(=O)O)cc1 [Example 4:1, 5-(4-Chlorophenylamino)-2-(4-heptylamidobenzoyl)benzoic acid] | 646 nM | – | 98%
6 | CN(c1ccc(Cl)cc1)c1ccc(C(=O)c2cc(NCc3ccccc3)cc(C(=O)O)c2)cc1 [10:10, 3-Benzylamino-5-{4-[(4-chlorophenyl)(methyl)amino]benzoyl}benzoic acid] | 360 nM | – | –
7 | COc1ccc(NC(=O)c2cc(C(=O)O)cc(C(=O)c3ccc(N(C)c4ccc(Cl)cc4)cc3)c2)cc1OC [2:14, 3-{4-[(4-Chlorophenyl)(methyl)amino]benzoyl}-5-(3,4-dimethoxyphenyl-carbamoyl)benzoic acid] | 925 nM | – | –
8 | COc1cccc(COc2cc(C(=O)O)cc(C(=O)c3ccc(N(C)c4ccc(Cl)cc4)cn3)c2)c1 [11:3, 3-{5-[(4-Chlorophenyl)(methyl)amino]picolinoyl}-5-(3-methoxybenzyloxy)-benzoic acid] | 250 nM | – | –
9 | CN(c1ccc(Cl)cc1)c1ccc(C(=O)c2cc(C(=O)O)cc(N(CC3(C)COC3)c3ccccc3F)c2)cc1 [10:28, 3-{4-[(4-Chlorophenyl)(methyl)amino]benzoyl}-5-{(2-fluorophenyl)[(3-methyl-oxetan-3-yl)methyl]amino}benzoic acid] | 68 nM | – | –
10 | CN(c1ccc(Cl)cc1)c1ccc(C(=O)c2ccc(NC(=O)c3cccc(Cl)c3)cc2)c(C(=O)O)c1 [Example 4:2, 2-[4-(3-Chlorobenzamido)benzoyl]-5-[(4-chlorophenyl)(methyl)amino)-benzoic acid] | 703 nM | – | 100%
11 | CN(c1ccc(Cl)cc1)c1ccc(C(=O)c2cc(Oc3cccc(Cl)c3)cc(C(=O)O)c2)cc1 [8:20, 3-(3-Chlorophenoxy)-5-{4-[(4-chlorophenyl)(methyl)amino]benzoyl}benzoic acid] | 87 nM | – | –
12 | O=C(O)c1cc(Nc2ccc(Cl)cc2)ccc1C(=O)c1ccc(Nc2ccc(C(=O)C3CC3)cc2)cc1 [6:2, 5-(4-Chlorophenylamino)-2-[4-(4-cyclopropylcarbonylphenylamino)-benzoyl]benzoic acid] | 390 nM | – | 100%
